Laboratory results published in ChEMBL document CHEMBL4002647, “BMS-933043, a Selective α7 nAChR Partial Agonist for the Treatment of Cognitive Deficits Associated with Schizophrenia” (ACS Med Chem Lett, 2017).
Active and inactive are the calls of the source. The calls are words filed in the database; no cut-off is given here.

How the values were obtained:
[1] = target: T1, Neuronal acetylcholine receptor subunit alpha-7 (Rattus norvegicus, UniProt Q05941); assay: Agonist activity at rat alpha7 nAChR expressed in HEK293 cells assessed as increase in Ca2+ flux by Fluo-4 AM dye based FLIPR assay; assay type: cell-based
T1 sequence (Q05941 whole entry): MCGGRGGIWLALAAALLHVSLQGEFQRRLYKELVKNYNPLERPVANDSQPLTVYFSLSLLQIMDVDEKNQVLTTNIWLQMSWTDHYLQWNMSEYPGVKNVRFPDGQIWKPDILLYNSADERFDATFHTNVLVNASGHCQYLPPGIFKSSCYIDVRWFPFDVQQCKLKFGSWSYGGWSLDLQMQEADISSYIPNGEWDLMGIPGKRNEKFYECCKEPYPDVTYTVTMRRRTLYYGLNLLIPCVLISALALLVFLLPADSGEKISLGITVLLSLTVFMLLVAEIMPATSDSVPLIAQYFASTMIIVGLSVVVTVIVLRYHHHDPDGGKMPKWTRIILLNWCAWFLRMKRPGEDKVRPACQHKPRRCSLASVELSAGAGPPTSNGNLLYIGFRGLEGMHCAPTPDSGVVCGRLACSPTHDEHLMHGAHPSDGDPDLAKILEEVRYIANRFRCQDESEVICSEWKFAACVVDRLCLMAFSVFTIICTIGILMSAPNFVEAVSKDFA

[2] = target: T1, Neuronal acetylcholine receptor subunit alpha-7; assay: Agonist activity at rat alpha7 nAChR expressed in HEK293 cells co-expressing human RIC3 assessed as area under current curve at holding potential of -90 mV by whole-cell voltage clamp electrophysiology method; assay type: cell-based
[3] = target: T2, Neuronal acetylcholine receptor subunit alpha-7 (Homo sapiens, UniProt P36544); assay: Agonist activity at human alpha7 nAChR expressed in HEK293 cells co-expressing human RIC3 assessed as induction of peak current amplitutde at 10 uM at holding potential of -90 mV by whole-cell voltage clamp electrophysiology method relative to acetylcholine; assay type: cell-based
T2 sequence (P36544 whole entry): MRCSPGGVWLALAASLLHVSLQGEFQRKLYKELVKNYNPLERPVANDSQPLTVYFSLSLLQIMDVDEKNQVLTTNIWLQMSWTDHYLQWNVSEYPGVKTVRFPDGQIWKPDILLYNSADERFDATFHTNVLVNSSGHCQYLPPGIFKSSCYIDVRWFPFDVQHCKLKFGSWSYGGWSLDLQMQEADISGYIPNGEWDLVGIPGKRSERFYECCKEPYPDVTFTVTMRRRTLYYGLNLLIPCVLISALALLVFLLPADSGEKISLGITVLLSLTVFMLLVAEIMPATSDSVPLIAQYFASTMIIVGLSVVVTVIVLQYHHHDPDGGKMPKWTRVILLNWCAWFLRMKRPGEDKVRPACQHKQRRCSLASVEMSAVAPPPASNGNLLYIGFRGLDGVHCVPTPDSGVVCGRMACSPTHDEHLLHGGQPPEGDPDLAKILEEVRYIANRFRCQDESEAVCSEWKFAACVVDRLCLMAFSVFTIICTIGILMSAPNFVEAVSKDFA

[4] = target: T2, Neuronal acetylcholine receptor subunit alpha-7; assay: Agonist activity at human alpha7 nAChR expressed in HEK293 cells co-expressing human RIC3 assessed as area under current curve at 10 uM at holding potential of -90 mV by whole-cell voltage clamp electrophysiology method relative to acetylcholine; assay type: cell-based
[5] = target: T2, Neuronal acetylcholine receptor subunit alpha-7; assay: Agonist activity at human alpha7 nAChR expressed in HEK293 cells co-expressing human RIC3 assessed as area under current curve at holding potential of -90 mV by whole-cell voltage clamp electrophysiology method; assay type: cell-based
[6] = target: Nicotinic acetylcholine receptor alpha-1/beta-1/delta/epsilon (Rattus norvegicus, UniProt P09660+P25108+P25109+P25110); assay: Agonist activity at rat alpha1beta1delta1epsilon nAChR expressed in HEK293 cells assessed as increase in Ca2+ flux by Fluo-4 AM dye based FLIPR assay; assay type: cell-based
[7] = target: Neuronal acetylcholine receptor; alpha3/beta4 (Rattus norvegicus, UniProt P04757+P12392); assay: Agonist activity at rat alpha3beta4 nAChR expressed in HEK293 cells assessed as increase in Ca2+ flux by Fluo-4 AM dye based FLIPR assay; assay type: cell-based
Sequence of Neuronal acetylcholine receptor; alpha3/beta4 (P04757 whole entry): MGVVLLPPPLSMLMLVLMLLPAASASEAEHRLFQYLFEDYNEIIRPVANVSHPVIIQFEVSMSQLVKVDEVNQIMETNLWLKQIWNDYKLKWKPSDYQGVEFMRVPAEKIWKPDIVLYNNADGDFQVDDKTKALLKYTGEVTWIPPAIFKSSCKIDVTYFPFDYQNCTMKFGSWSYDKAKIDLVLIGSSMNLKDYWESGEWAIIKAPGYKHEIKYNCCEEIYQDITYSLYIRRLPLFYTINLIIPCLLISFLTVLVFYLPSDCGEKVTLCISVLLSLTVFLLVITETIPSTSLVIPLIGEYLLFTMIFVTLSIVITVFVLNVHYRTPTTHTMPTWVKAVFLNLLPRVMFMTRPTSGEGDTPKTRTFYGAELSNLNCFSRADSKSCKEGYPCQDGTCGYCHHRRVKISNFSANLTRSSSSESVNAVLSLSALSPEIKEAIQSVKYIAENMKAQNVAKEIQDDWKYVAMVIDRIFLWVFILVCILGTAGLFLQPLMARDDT
Sequence of Neuronal acetylcholine receptor; alpha3/beta4 (P12392 whole entry): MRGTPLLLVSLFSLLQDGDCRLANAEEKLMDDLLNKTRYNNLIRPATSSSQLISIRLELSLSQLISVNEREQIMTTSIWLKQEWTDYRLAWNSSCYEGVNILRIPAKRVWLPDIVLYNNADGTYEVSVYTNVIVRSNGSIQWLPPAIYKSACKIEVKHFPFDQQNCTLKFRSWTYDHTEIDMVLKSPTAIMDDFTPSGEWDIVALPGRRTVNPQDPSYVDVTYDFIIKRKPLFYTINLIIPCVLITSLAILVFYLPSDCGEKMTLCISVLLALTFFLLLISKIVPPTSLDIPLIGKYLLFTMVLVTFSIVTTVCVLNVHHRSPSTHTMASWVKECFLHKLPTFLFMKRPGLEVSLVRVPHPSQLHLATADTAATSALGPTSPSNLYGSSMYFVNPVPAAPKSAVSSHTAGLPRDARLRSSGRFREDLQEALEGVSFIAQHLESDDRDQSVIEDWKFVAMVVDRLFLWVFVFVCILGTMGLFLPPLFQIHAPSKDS

[8] = target: Neuronal acetylcholine receptor; alpha4/beta2 (Rattus norvegicus, UniProt P09483+P12390); assay: Agonist activity at rat alpha4beta2 nAChR expressed in HEK293 cells assessed as increase in Ca2+ flux by Fluo-4 AM dye based FLIPR assay; assay type: cell-based
[9] = target: Muscarinic acetylcholine receptor M1 (Homo sapiens) (UniProt P11229); assay: Activity at human muscarinic M1 receptor
[10] = target: Muscarinic acetylcholine receptor M3 (Homo sapiens) (UniProt P20309); assay: Activity at human muscarinic M3 receptor
Sequence of Muscarinic acetylcholine receptor M3 (Homo sapiens) (P20309 whole entry, looked up): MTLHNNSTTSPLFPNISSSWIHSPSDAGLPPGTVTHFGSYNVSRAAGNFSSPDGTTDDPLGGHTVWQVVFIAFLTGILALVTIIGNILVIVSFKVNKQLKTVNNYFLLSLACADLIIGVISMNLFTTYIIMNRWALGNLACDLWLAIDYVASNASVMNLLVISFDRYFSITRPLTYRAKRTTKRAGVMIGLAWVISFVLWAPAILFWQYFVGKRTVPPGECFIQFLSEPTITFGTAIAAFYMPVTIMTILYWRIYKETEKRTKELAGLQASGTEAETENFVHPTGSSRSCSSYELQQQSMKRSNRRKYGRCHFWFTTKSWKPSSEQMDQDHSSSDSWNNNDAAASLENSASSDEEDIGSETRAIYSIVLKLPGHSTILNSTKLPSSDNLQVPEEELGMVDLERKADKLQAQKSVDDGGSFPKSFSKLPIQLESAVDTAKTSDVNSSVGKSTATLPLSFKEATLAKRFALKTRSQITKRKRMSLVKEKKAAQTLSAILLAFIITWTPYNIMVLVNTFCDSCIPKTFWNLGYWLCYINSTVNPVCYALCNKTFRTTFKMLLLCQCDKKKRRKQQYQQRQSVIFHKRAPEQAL

[11] = target: Muscarinic acetylcholine receptor M4 (Homo sapiens) (UniProt P08173); assay: Activity at human muscarinic M4 receptor
Sequence of Muscarinic acetylcholine receptor M4 (Homo sapiens) (P08173 whole entry): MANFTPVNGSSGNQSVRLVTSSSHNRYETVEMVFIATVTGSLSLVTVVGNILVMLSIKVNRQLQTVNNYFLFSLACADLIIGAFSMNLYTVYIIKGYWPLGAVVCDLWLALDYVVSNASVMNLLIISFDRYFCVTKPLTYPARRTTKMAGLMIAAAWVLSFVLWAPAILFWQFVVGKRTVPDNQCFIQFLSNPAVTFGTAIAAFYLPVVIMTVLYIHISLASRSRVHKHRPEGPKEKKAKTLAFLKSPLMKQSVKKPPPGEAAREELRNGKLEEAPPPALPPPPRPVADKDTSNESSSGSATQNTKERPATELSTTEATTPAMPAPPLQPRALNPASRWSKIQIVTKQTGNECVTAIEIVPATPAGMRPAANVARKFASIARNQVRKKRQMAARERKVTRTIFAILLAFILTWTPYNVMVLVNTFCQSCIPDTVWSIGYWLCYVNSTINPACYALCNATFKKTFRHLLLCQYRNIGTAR

[12] = target: Muscarinic acetylcholine receptor M5 (Homo sapiens) (UniProt P08912); assay: Activity at human muscarinic M5 receptor
Sequence of Muscarinic acetylcholine receptor M5 (Homo sapiens) (P08912 whole entry): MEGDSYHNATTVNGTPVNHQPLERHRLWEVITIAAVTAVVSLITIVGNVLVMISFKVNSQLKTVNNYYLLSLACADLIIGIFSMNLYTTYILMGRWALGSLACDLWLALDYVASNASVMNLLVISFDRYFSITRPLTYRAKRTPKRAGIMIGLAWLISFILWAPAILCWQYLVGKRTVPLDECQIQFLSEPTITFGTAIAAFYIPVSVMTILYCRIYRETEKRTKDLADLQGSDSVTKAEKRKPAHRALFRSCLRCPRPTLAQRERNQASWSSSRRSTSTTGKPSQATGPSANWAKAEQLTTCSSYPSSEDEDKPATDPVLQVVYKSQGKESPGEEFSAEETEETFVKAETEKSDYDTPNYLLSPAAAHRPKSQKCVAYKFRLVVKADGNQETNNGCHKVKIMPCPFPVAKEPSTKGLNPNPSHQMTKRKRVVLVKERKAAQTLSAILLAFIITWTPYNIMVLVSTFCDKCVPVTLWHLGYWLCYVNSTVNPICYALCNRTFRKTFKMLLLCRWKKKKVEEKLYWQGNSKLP

[13] = Metabolic stability in human liver microsomes assessed as compound remaining at 3 uM after 10 mins by LC-MS/MS analysis; assay type: ADME, microsome; conditions: read-out: Stability
[14] = Metabolic stability in rat liver microsomes assessed as compound remaining at 3 uM after 10 mins by LC-MS/MS analysis; assay type: ADME, microsome; conditions: read-out: Stability
[15] = Metabolic stability in dog liver microsomes assessed as compound remaining at 3 uM after 10 mins by LC-MS/MS analysis; assay type: ADME, Canis lupus familiaris, microsome; conditions: read-out: Stability
[16] = Metabolic stability in monkey liver microsomes assessed as compound remaining at 3 uM after 10 mins by LC-MS/MS analysis; assay type: ADME, Macaca mulatta, microsome; conditions: rhesus monkey, read-out: Stability
Cytochrome P450 3A4 [17] = target: T3, Cytochrome P450 3A4 (Homo sapiens, UniProt P08684); assay: Inhibition of recombinant human CYP3A4 using fluorogenic substrate BFC preincubated for 30 mins and measured after 20 to 60 mins in presence of NADPH regenerating system by fluorescence assay; assay type: ADME
T3 sequence (P08684 whole entry): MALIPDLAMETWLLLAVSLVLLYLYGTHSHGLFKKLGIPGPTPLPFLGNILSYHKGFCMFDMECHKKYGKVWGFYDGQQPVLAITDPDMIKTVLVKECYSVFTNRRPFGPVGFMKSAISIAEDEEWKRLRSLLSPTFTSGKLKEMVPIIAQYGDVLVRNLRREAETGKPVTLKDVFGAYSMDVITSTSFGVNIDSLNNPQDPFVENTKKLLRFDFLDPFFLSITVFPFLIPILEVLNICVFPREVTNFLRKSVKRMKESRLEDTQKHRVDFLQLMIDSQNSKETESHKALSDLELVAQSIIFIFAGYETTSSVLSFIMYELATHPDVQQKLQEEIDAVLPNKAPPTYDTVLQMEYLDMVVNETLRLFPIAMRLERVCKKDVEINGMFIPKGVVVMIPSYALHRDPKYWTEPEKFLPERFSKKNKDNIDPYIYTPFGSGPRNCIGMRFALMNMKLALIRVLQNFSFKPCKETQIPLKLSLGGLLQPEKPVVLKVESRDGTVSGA

Cytochrome P450 3A4 [18] = target: T3, Cytochrome P450 3A4; assay: Inhibition of recombinant human CYP3A4 using fluorogenic substrate BZR preincubated for 30 mins and measured after 20 to 60 mins in presence of NADPH regenerating system by fluorescence assay; assay type: ADME
Cytochrome P450 2B6 = Cytochrome P450 2B6 (Homo sapiens, UniProt P20813); assay: Inhibition of recombinant human CYP2B6 using fluorogenic substrate preincubated for 30 mins and measured after 20 to 60 mins in presence of NADPH regenerating system by fluorescence assay; assay type: ADME
Sequence of Cytochrome P450 2B6 (P20813 whole entry): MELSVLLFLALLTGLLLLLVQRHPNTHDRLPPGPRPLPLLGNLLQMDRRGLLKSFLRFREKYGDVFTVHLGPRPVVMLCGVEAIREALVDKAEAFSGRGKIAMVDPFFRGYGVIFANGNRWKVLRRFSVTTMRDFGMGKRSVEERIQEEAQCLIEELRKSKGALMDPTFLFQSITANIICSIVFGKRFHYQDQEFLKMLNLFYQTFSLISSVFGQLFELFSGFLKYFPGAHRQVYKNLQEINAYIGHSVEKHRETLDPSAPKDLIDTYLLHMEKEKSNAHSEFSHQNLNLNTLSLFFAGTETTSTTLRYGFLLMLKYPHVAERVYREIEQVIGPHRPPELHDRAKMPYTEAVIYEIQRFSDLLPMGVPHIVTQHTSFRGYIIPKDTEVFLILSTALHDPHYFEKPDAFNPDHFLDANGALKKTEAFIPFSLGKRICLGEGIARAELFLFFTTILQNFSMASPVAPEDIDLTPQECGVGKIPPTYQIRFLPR

Cytochrome P450 2C8 = Cytochrome P450 2C8 (Homo sapiens, UniProt P10632); assay: Inhibition of recombinant human CYP2C8 using fluorogenic substrate preincubated for 30 mins and measured after 20 to 60 mins in presence of NADPH regenerating system by fluorescence assay; assay type: ADME
Cytochrome P450 2D6 = Cytochrome P450 2D6 (Homo sapiens, UniProt P10635); assay: Inhibition of recombinant human CYP2D6 using fluorogenic substrate preincubated for 30 mins and measured after 20 to 60 mins in presence of NADPH regenerating system by fluorescence assay; assay type: ADME
[19] = Fraction unbound in human plasma at 10 uM after 4 hrs by equilibrium dialysis method; assay type: ADME, cell-free
[20] = Fraction unbound in rat plasma at 10 uM after 4 hrs by equilibrium dialysis method; assay type: ADME, cell-free
[21] = Fraction unbound in mouse plasma at 10 uM after 4 hrs by equilibrium dialysis method; assay type: ADME, cell-free
[22] = Fraction unbound in dog plasma at 10 uM after 4 hrs by equilibrium dialysis method; assay type: ADME, cell-free, Canis lupus familiaris
[23] = Fraction unbound in monkey plasma at 10 uM after 4 hrs by equilibrium dialysis method; assay type: ADME, cell-free, Macaca mulatta; conditions: rhesus monkey
Mus musculus [24] = assay: Cognitive enhancing effect in C57Bl/6 mouse assessed as time spent on exploring novel objects at 0.1 to 10 mg/kg, sc administered 30 mins prior to test and measured after 24 hrs by novel object recognition test; assay type: functional, organism-based
[25] = Fraction unbound in C57Bl/6 mouse plasma at 0.1 mg/kg, sc after 30 mins; assay type: ADME, organism-based
[26] = Drug level in C57Bl/6 mouse plasma at 0.1 mg/kg, sc after 30 mins; assay type: ADME, organism-based
[27] = Volume of distribution at steady state in mouse at 1 mg/kg, iv administered as 5 mins infusion; assay type: ADME, organism-based; conditions: in vivo, read-out: Vdss
[28] = Total plasma clearance in mouse at 1 mg/kg, iv administered as 5 mins infusion; assay type: ADME, organism-based
[29] = Half life in mouse at 1 mg/kg, iv administered as 5 mins infusion; assay type: ADME, organism-based; conditions: in vivo
[30] = AUC in mouse at 1 mg/kg, iv administered as 5 mins infusion; assay type: ADME, organism-based; conditions: in vivo
[31] = Ratio of drug level in mouse brain to plasma at 1 mg/kg, iv administered as 5 mins infusion after 30 mins; assay type: ADME, organism-based; conditions: brain and plasma, read-out: BPR
[32] = Volume of distribution at steady state in rat at 1 mg/kg, iv administered as 5 mins infusion; assay type: ADME, organism-based; conditions: in vivo, read-out: Vdss
[33] = Cmax in mouse at 10 mg/kg, po; assay type: ADME, organism-based; set-up: dose 10 mg/kg, route oral; conditions: in vivo
[34] = AUC in mouse at 10 mg/kg, po; assay type: ADME, organism-based; conditions: in vivo
[35] = Oral bioavailability in mouse at 10 mg/kg; assay type: ADME, organism-based; conditions: in vivo
[36] = Total plasma clearance in rat at 1 mg/kg, iv administered as 5 mins infusion; assay type: ADME, organism-based
[37] = Half life in rat at 1 mg/kg, iv administered as 5 mins infusion; assay type: ADME, organism-based; conditions: in vivo
[38] = AUC in rat at 1 mg/kg, iv administered as 5 mins infusion; assay type: ADME, organism-based; conditions: in vivo
[39] = Cmax in rat at 10 mg/kg, po; assay type: ADME, organism-based; set-up: dose 10 mg/kg, route oral; conditions: in vivo
[40] = AUC in rat at 10 mg/kg, po; assay type: ADME, organism-based; conditions: in vivo
[41] = Oral bioavailability in rat at 10 mg/kg; assay type: ADME, organism-based; conditions: in vivo
[42] = Volume of distribution at steady state in dog at 1 mg/kg, iv administered as 5 mins infusion; assay type: ADME, organism-based, Canis lupus familiaris; conditions: in vivo, read-out: Vdss
[43] = Total plasma clearance in dog at 1 mg/kg, iv administered as 5 mins infusion; assay type: ADME, organism-based, Canis lupus familiaris
[44] = Half life in dog at 1 mg/kg, iv administered as 5 mins infusion; assay type: ADME, organism-based, Canis lupus familiaris; conditions: in vivo
[45] = AUC in dog at 1 mg/kg, iv administered as 5 mins infusion; assay type: ADME, organism-based, Canis lupus familiaris; conditions: in vivo
[46] = Cmax in dog at 5 mg/kg, po; assay type: ADME, organism-based, Canis lupus familiaris; set-up: dose 5 mg/kg, route oral; conditions: in vivo
[47] = AUC in dog at 5 mg/kg, po; assay type: ADME, organism-based, Canis lupus familiaris; conditions: in vivo
[48] = Oral bioavailability in dog at 5 mg/kg; assay type: ADME, organism-based, Canis lupus familiaris; conditions: in vivo
[49] = Volume of distribution at steady state in cynomolgus monkey at 1 mg/kg, iv administered as 5 mins infusion; assay type: ADME, organism-based, Macaca fascicularis; conditions: in vivo, read-out: Vdss
[50] = Total plasma clearance in cynomolgus monkey at 1 mg/kg, iv administered as 5 mins infusion; assay type: ADME, organism-based, Macaca fascicularis
[51] = Half life in cynomolgus monkey at 1 mg/kg, iv administered as 5 mins infusion; assay type: ADME, organism-based, Macaca fascicularis; conditions: in vivo
[52] = AUC in cynomolgus monkey at 1 mg/kg, iv administered as 5 mins infusion; assay type: ADME, organism-based, Macaca fascicularis; conditions: in vivo
[53] = Cmax in cynomolgus monkey at 5 mg/kg, po; assay type: ADME, organism-based, Macaca fascicularis; set-up: dose 5 mg/kg, route oral; conditions: in vivo
[54] = AUC in cynomolgus monkey at 5 mg/kg, po; assay type: ADME, organism-based, Macaca fascicularis; conditions: in vivo
[55] = Oral bioavailability in cynomolgus monkey at 5 mg/kg; assay type: ADME, organism-based, Macaca fascicularis; conditions: in vivo
Mus musculus [56] = assay: Cognitive enhancing effect in C57Bl/6 mouse assessed as time spent on exploring novel objects administered subcutaneously 30 mins prior to test and measured after 24 hrs by novel object recognition test; assay type: functional; conditions: C57Bl/6, sc, read-out: MED
[57] = Metabolic stability in mouse liver microsomes assessed as compound remaining at 3 uM after 10 mins by LC-MS/MS analysis; assay type: ADME, microsome; conditions: read-out: Stability

## c1cn(-c2cc(NC3=NC[C@@]4(CN5CCC4CC5)O3)ncn2)cn1
[1]
  EC50: 0.023 µM
[2]
  EC50: 0.1 µM
[3]
  %max: 24%
[4]
  %max: 78%
[5]
  EC50: 0.3 µM
[6]
  EC50: > 100 µM
[7]
  EC50: > 100 µM
[8]
  EC50: > 100 µM
[9]
  Activity: inactive
[10]
  Activity: inactive
[11]
  Activity: inactive
[12]
  Activity: inactive
[13]
  remaining at 10 min, 3 µM: 91%
[14]
  remaining at 10 min, 3 µM: 95%
[15]
  remaining at 10 min, 3 µM: 98%
[16]
  remaining at 10 min, 3 µM: 100%
Cytochrome P450 3A4 [17]
  IC50: > 30 µM
Cytochrome P450 3A4 [18]
  IC50: > 30 µM
Cytochrome P450 2B6
  IC50: > 30 µM
Cytochrome P450 2C8
  IC50: > 30 µM
Cytochrome P450 2D6
  IC50: > 30 µM
[19]
  fraction unbound at 4 h, 10 µM: 0.87
[20]
  fraction unbound at 4 h, 10 µM: 0.87
[21]
  fraction unbound at 4 h, 10 µM: 0.84
[22]
  fraction unbound at 4 h, 10 µM: 0.93
[23]
  fraction unbound at 4 h, 10 µM: 0.87
Mus musculus [24]
  Activity: Active
[25]
  fraction unbound at 0.5 h: 0.84
[26]
  concentration at 0.5 h: 52 nM
[27]
  Vd: 7 L/kg
[28]
  clearance: 96 mL/min/kg
[29]
  half-life: 1.1 h
[30]
  AUC at 5 min: 0.53 µM·h
[31]
  Kp at 0.5 h: 0.21
[32]
  Vd: 2.9 L/kg
[33]
  Cmax: 550 nM
[34]
  AUC: 3.2 µM·h
[35]
  bioavailability: 45%
[36]
  clearance: 70 mL/min/kg
[37]
  half-life: 0.7 h
[38]
  AUC at 5 min: 0.75 µM·h
[39]
  Cmax: 1600 nM
[40]
  AUC: 7.2 µM·h
[41]
  bioavailability: 97%
[42]
  Vd: 5.5 L/kg
[43]
  clearance: 15 mL/min/kg
[44]
  half-life: 5.5 h
[45]
  AUC at 5 min: 3.4 µM·h
[46]
  Cmax: 3200 nM
[47]
  AUC: 19 µM·h
[48]
  bioavailability: 100%
[49]
  Vd: 5.7 L/kg
[50]
  clearance: 17 mL/min/kg
[51]
  half-life: 4.4 h
[52]
  AUC at 5 min: 3 µM·h
[53]
  Cmax: 1300 nM
[54]
  AUC: 11 µM·h
[55]
  bioavailability: 70%
Mus musculus [56]
  minimal effective dose: 0.1 mg/kg
[57]
  remaining at 10 min, 3 µM: 93%
